# Test results: ChEMBL document CHEMBL1135357, “Anti-MRSA activity of alkyl gallates” (2002)
# How the values were obtained:
# Assay type in all cases: functional
# Bacillus subtilis = test: Compound was tested for antibacterial activity against Bacillus subtilis
# Bacillus thuringiensis = test: Compound was tested for antibacterial activity against Bacillus thuringiensis
# [1] = tested on: Corynebacterium ammoniagenes; test: Compound was tested for antibacterial activity against Brevibacterium ammoniagenes
# Micrococcus luteus = test: Compound was tested for antibacterial activity against Micrococcus luteus
# Cutibacterium acnes = test: Compound was tested for antibacterial activity against Propionibacterium acnes
# Staphylococcus aureus [2] = test: Compound was tested for antibacterial activity against MRSA ATCC 33591, expressed as minimum bactericidal concentration (MBC)
# Staphylococcus aureus [3] = test: Compound was tested for antibacterial activity against Staphylococcus aureus
# Staphylococcus aureus [4] = test: Compound was tested for antibacterial activity against Staphylococcus aureus (MRSA)
# Staphylococcus aureus [5] = test: Compound was tested for antibacterial activity against MRSA ATCC 33591, expressed as aminimum inhibitory concentration (MIC)
# Streptococcus mutans = test: Compound was tested for antibacterial activity against Streptococcus mutans
# Staphylococcus aureus [6] = test: Compound was tested for antibacterial activity against MRSA ATCC 33591, expressed as minimum inhibitory concentration (MIC)
Structure (SMILES),MBC (Staphylococcus aureus [2]),MIC (Staphylococcus aureus [6]),other results
CCCCCCCCCCCCOC(=O)c1cc(O)c(O)c(O)c1 [DODECYL GALLATE],25 µg/mL,–,MBC (Bacillus subtilis): 25 µg/mL; MIC (Bacillus subtilis): 25 µg/mL; MIC (Bacillus thuringiensis): 50 µg/mL; MBC [1]: 25 µg/mL; MIC [1]: 25 µg/mL; MBC (Micrococcus luteus): 25 µg/mL; MIC (Micrococcus luteus): 12.5 µg/mL; MBC (Cutibacterium acnes): 6.25 µg/mL; MIC (Cutibacterium acnes): 6.25 µg/mL; MBC (Staphylococcus aureus [3]): 25 µg/mL; MIC (Staphylococcus aureus [3]): 12.5 µg/mL; MBC (Staphylococcus aureus [4]): 25 µg/mL; MIC (Staphylococcus aureus [4]): 12.5 µg/mL; MIC (Staphylococcus aureus [5]): 12.5 µg/mL; MBC (Streptococcus mutans): 100 µg/mL; MIC (Streptococcus mutans): 100 µg/mL
CCCCCCCCCCCOC(=O)c1cc(O)c(O)c(O)c1 [UNDECYL GALLATE],25 µg/mL,12.5 µg/mL,–
CCCCCCCCCCOC(=O)c1cc(O)c(O)c(O)c1 [DECYL GALLATE],25 µg/mL,12.5 µg/mL,–
CCCCCCCOC(=O)c1cc(O)c(O)c(O)c1 [HEPTYL GALLATE],100 µg/mL,25 µg/mL,–
CCCCCCCCCOC(=O)c1cc(O)c(O)c(O)c1 [NONYL GALLATE],50 µg/mL,25 µg/mL,–
CCCCCCCCCCCOC(=O)c1cccc(O)c1,50 µg/mL,50 µg/mL,–
CCCCCCCCCCCOC(=O)c1cc(O)cc(O)c1,50 µg/mL,50 µg/mL,–
CCCCCCCCOC(=O)c1cc(O)c(O)c(O)c1 [OCTYL_GALLATE],50 µg/mL,25 µg/mL,–
COc1cccc(OC)c1C(=O)N[C@@H]1C(=O)N2[C@@H]1SC(C)(C)[C@@H]2C(=O)O [METHICILLIN],> 800 µg/mL,800 µg/mL,–
CCCCCCOC(=O)c1cc(O)c(O)c(O)c1 [HEXYL GALLATE],200 µg/mL,50 µg/mL,–
CCCOC(=O)c1cc(O)c(O)c(O)c1 [PROPYL GALLATE],3200 µg/mL,1600 µg/mL,–
